We go through 10 molecules from US10189839B2, “Tricyclic imidazole compounds as inhibitors of tryptophan hydroxylase” (ACTELION PHARMACEUTICALS LTD, priority 2013, dated 2019).

The target in the experiment is T1, full length human TPH1 (Homo sapiens, UniProt P17752).
T1 construct: To generate the enzyme, full length human TPH1 is cloned into the plasmid pET20b(+); made in house; host or cells: E. coli
T1 sequence (P17752 1-444): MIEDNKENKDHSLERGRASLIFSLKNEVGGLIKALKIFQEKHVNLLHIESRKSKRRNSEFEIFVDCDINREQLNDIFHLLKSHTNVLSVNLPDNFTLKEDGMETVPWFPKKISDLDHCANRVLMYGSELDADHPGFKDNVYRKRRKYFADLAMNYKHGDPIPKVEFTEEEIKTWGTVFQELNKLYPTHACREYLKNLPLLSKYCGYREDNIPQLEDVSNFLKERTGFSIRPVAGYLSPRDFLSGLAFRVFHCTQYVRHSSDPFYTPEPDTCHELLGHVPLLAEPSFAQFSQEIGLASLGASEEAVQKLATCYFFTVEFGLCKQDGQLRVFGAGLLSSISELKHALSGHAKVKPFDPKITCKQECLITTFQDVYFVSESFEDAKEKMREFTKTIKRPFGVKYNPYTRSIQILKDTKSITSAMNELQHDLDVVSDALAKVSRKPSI
The experiment in a line: Biochemical in vitro assay using fluorescence readout (TPH1 enzyme activity). To be noted: Table 1, mean where determined several times. Summed up:
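E. coli-expressed full-length human TPH1 (40-80 nM), affinity- and size-exclusion-purified, incubated 60 min at 15° C. in 0.1M Tris-HCl pH 7.6 with 1 mM DTT, 0.2 mg/ml catalase, 100 μM 6-methyltetrahydropterine and 40 μM L-tryptophan. 5-Hydroxy-L-tryptophan read by fluorescence (ex 300/em 540 nm) after HClO4 quench; IC50 versus vehicle, mean where repeated.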
In general, IC50 refers to the concentration that gives 50% inhibition. A low value points to higher potency. `Cc1nc(C)c(C2c3c(nc4n3CCCC4)CCN2C(=O)COc2ccc(N(C)S(C)(=O)=O)nc2Cl)s1` (stereo not shown) [Example 1.10.12, N-(6-chloro-5-(2-(1-(2,4-dimethylthiazol-5-yl)-3,4,6,7,8,9-hexahydroimidazo[1,2-a:5,4-c′]dipyridin-2(1H)-yl)-2-oxoethoxy)pyridin-2-yl)-N-methylmethanesulfonamide] yielded an IC50 of 20 nM.
For `CCc1nc(NS(C)(=O)=O)ccc1OCC(=O)N1CCc2nc3n(c2C1c1sc(C)nc1C)CCCC3` (stereo not shown) [Example 1.10.13, N-(5-(2-(1-(2,4-dimethylthiazol-5-yl)-3,4,6,7,8,9-hexahydroimidazo[1,2-a:5,4-c′]dipyridin-2(1H)-yl)-2-oxoethoxy)-6-ethylpyridin-2-yl)methanesulfonamide] the value was 8 nM; for `Cc1nc(C)c(C2c3c(nc4n3CCCC4)CCN2C(=O)COc2ccc(N3CCCS3(=O)=O)nc2Cl)s1` (stereo not shown) [Example 1.10.14, 2-((2-chloro-6-(1,1-dioxidoisothiazolidin-2-yl)pyridin-3-yl)oxy)-1-(1-(2,4-dimethylthiazol-5-yl)-3,4,6,7,8,9-hexahydroimidazo[1,2-a:5,4-c′]dipyridin-2(1H)-yl)ethanone], 14 nM; for `CCc1nc(C(=O)NC2CC2)ccc1OCC(=O)N1CCc2nc3n(c2C1c1sc(C)nc1C)CCCC3` (stereo not shown) [Example 1.10.15, N-cyclopropyl-5-(2-(1-(2,4-dimethylthiazol-5-yl)-3,4,6,7,8,9-hexahydroimidazo[1,2-a:5,4-c′]dipyridin-2(1H)-yl)-2-oxoethoxy)-6-ethylpicolinamide], 8 nM.
The figure for `CCc1nc(NS(C)(=O)=O)ccc1OCC(=O)N1CCc2nc3n(c2[C@@H]1c1sc(C)nc1C)CCCC3` [Example 1.10.16, (R)-N-(5-(2-(1-(2,4-dimethylthiazol-5-yl)-3,4,6,7,8,9-hexahydroimidazo[1,2-a:5,4-c′]dipyridin-2(1H)-yl)-2-oxoethoxy)-6-ethylpyridin-2-yl)methanesulfonamide] is 6 nM; for `CCc1nc(C(=O)NC2CC2)ccc1OCC(=O)N1CCc2nc3n(c2[C@@H]1c1sc(C)nc1C)CCCC3` [Example 1.10.17, (R)-N-cyclopropyl-5-(2-(1-(2,4-dimethylthiazol-5-yl)-3,4,6,7,8,9-hexahydroimidazo[1,2-a:5,4-c′]dipyridin-2(1H)-yl)-2-oxoethoxy)-6-ethylpicolinamide] it is 5 nM; for `CCc1nc(NS(C)(=O)=O)ncc1OCC(=O)N1CCc2nc3n(c2C1c1sc(C)nc1C)CCCC3` (stereo not shown) [Example 1.10.18, N-(5-(2-(1-(2,4-dimethylthiazol-5-yl)-3,4,6,7,8,9-hexahydroimidazo[1,2-a:5,4-c′]dipyridin-2(1H)-yl)-2-oxoethoxy)-4-ethylpyrimidin-2-yl)methanesulfonamide] it is 121 nM.
As to `CCc1nc(N2CCCS2(=O)=O)ccc1OCC(=O)N1CCc2nc3n(c2C1c1sc(C)nc1C)CCCC3` (stereo not shown) [Example 1.10.19, 1-(1-(2,4-dimethylthiazol-5-yl)-3,4,6,7,8,9-hexahydroimidazo[1,2-a:5,4-c′]dipyridin-2(1H)-yl)-2-((6-(1,1-dioxidoisothiazolidin-2-yl)-2-ethylpyridin-3-yl)oxy)ethan-1-one], the midpoint of inhibition, the IC50, lay at 11 nM.
For `CCc1nc(C)c(C2c3c(nc4n3CCCC4)CCN2C(=O)COc2ccc(NS(C)(=O)=O)nc2Cl)s1` (stereo not shown) [Example 1.11.1, N-(6-chloro-5-(2-(1-(2-ethyl-4-methylthiazol-5-yl)-3,4,6,7,8,9-hexahydroimidazo[1,2-a:5,4-c′]dipyridin-2(1H)-yl)-2-oxoethoxy)pyridin-2-yl)methanesulfonamide] the value was 49 nM.
For `Cc1nc(C(C)C)sc1C1c2c(nc3n2CCCC3)CCN1C(=O)COc1ccc(NS(C)(=O)=O)nc1Cl` (stereo not shown) [Example 1.12.1, N-(6-chloro-5-(2-(1-(2-isopropyl-4-methylthiazol-5-yl)-3,4,6,7,8,9-hexahydroimidazo[1,2-a:5,4-c′]dipyridin-2(1H)-yl)-2-oxoethoxy)pyridin-2-yl)methanesulfonamide] the value was 819 nM.
